{"source": "patent US12427210B2", "about": "“Compounds comprising a fibroblast activation protein ligand and use thereof” (priority 2019, dated 2025)", "key": {"[1]": {"biological_target": "T1, Matrix metalloprotease 2 (Homo sapiens, UniProt P08253)", "T1 sequence (P08253 110-660)": "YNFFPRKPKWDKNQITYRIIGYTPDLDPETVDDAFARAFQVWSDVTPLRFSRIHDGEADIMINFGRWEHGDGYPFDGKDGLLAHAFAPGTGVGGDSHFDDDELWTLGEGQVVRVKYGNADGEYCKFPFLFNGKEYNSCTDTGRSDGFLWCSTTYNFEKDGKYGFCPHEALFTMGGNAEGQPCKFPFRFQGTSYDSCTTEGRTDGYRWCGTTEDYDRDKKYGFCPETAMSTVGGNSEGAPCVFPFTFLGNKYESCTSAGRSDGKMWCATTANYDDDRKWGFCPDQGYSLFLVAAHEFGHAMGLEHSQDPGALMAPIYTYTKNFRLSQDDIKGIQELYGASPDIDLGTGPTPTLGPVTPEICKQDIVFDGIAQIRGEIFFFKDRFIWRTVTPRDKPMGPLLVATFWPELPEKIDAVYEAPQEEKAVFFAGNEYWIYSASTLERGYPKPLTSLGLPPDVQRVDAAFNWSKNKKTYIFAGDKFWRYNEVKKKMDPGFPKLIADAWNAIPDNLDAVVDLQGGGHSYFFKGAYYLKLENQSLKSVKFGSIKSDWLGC", "settings": "100 nM"}, "[2]": {"biological_target": "T2, Matrix metalloprotease 9 (mutant Q279R) (Homo sapiens, UniProt P14780, Q279R)", "T2 sequence (P14780 94-707 Q279R)": "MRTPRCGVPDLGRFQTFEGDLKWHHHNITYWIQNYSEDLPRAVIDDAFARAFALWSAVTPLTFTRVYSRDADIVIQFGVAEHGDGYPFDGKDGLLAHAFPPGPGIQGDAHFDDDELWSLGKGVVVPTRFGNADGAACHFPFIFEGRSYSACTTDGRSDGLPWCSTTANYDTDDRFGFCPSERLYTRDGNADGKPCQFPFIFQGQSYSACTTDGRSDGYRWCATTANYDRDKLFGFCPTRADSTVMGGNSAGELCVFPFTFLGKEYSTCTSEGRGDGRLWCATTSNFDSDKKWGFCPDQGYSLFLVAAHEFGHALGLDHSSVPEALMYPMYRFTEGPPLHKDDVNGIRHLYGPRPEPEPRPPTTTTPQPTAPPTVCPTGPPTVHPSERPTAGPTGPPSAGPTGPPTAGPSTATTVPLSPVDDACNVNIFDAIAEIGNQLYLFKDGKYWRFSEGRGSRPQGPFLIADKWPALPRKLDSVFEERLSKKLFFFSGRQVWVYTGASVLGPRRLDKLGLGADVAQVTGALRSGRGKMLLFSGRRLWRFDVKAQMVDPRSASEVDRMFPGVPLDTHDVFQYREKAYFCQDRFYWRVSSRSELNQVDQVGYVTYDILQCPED", "settings": "100 nM"}, "[3]": {"biological_target": "T3, Matrix metalloprotease1 (Homo sapiens, UniProt P03956)", "T3 sequence (P03956 100-469)": "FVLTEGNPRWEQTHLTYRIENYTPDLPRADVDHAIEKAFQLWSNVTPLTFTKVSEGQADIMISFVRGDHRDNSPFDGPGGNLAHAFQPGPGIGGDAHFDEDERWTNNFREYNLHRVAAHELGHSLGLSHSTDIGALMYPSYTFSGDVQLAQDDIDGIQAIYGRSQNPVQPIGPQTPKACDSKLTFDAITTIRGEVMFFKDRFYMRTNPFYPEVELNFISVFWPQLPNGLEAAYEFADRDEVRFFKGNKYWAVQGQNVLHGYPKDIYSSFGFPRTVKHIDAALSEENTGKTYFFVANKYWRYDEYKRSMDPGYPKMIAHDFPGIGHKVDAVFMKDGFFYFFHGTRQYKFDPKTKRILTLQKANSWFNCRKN", "settings": "1 μM"}}}
{"compound": "COc1ccc(S(=O)(=O)N(CC(=O)NO)CC(C)C)cc1", "note": "[NNGH]", "values": [{"measurement": "Percentage inhibition (%), Reference", "setting": "[1]", "result": 95, "unit": "%"}, {"measurement": "Percentage inhibition (%), Reference", "setting": "[2]", "result": 92, "unit": "%"}, {"measurement": "Percentage inhibition (%), Reference", "setting": "[3]", "result": 87, "unit": "%"}]}
